From PMC6130795 (ACS Omega, 2018)

Biological target: T1, CDC25B (Homo sapiens, UniProt P30305)
T1 sequence (P30305 431-538 limits assumed): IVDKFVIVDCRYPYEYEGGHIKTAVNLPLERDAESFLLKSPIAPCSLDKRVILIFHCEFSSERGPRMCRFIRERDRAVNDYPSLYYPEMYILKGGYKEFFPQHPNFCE
Assay: In vitro CDC25B enzyme inhibition assay
Assay type: biochemical

CDC25B IC50: 0.13 ± 0.02 µg/mL
Compound: [Na+].[Na+].[Na+].[O]=[V]([O-])([O-])[O-] [Na3VO4]
